Laboratory results: US20130121994A1, “TRIAZOLOPYRIDINE DERIVATIVES” (BAYER INTELLECTUAL PROPERTY GMBH, priority 2009, published 2013)

Biological target: T1, human kinase Mps-1 (Homo sapiens, UniProt P33981)
T1 construct: N-terminally GST-tagged human full length recombinant Mps-1 kinase; GST (N); purchased Invitrogen, Karslruhe, Germany PV4071
T1 sequence (P33981 1-857): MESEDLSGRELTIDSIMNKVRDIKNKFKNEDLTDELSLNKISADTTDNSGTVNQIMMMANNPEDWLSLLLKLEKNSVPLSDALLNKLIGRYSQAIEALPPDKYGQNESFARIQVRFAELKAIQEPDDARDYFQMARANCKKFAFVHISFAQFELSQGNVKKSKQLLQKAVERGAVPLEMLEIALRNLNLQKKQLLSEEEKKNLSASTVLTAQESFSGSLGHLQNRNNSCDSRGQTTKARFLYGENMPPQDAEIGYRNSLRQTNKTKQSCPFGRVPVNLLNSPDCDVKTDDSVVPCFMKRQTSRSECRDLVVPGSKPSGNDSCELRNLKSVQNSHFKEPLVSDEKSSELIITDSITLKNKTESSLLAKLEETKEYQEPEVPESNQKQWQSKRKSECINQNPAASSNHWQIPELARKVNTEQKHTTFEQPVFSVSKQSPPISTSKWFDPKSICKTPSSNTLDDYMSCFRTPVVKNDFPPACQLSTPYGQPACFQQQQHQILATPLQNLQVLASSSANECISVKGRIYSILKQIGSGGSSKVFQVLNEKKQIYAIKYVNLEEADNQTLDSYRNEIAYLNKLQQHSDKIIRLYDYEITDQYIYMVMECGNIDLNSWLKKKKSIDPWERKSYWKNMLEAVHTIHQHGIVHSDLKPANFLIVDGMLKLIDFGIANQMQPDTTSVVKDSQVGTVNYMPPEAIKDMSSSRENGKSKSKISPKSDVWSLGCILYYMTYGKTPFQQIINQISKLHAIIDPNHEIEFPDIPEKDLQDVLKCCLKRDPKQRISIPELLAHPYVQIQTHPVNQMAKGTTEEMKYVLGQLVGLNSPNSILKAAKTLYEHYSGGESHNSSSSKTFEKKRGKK
Experiment: Mps-1 kinase assay (HTRF)
Assay type: biochemical
Procedure: The human kinase Mps-1 phosphorylates a biotinylated substrate peptide. Detection of the phosphorylated product is achieved by homogenous time-resolved fluorescence resonance energy transfer (HTRF) from Europium-labelled anti-phospho-Serine/Threonine antibody as donor to streptavidin labelled with cross-linked allophycocyanin (SA-XLent) as acceptor. Compounds are tested for their inhibition of the kinase activity.
N-terminally GST-tagged human full length recombinant Mps-1 kinase (purchased from Invitrogen, Karslruhe, Germany, cat. no PV4071) was used. As substrate for the kinase reaction a biotinylated peptide of the amino-acid sequence […] (C-terminus in amide form, purchased from Biosynthan GmbH, Berlin) was used.
The concentration of Mps-1 in the assay was adjusted to the activity of the enzyme lot and was chosen appropriate to have the assay in the linear range, typical enzyme concentrations were in the range of about 1 nM (final conc. in the 5 μl assay volume).
The resulting mixture was incubated 1 h at 22° C. to allow the binding of the phosphorylated peptide to the anti-phospho(Ser/Thr)-Europium-antibody. Subsequently the amount of phosphorylated substrate was evaluated by measurement of the resonance energy transfer from the Europium-labelled anti-phospho(Ser/Thr) antibody to the Streptavidin-XLent.

Row | IC50 [nM] | SMILES
1 | 110 | N#Cc1ccccc1Nc1nc2ccc(-c3cccc(C(N)=O)c3)cn2n1 [Example 3.8, 3-{2-[(2-cyanophenyl)amino] [1,2,4]triazolo[1,5-a]pyridin-6-yl}benzamide]
2 | 740 | Cc1cc(O)ccc1-c1ccc2nc(Nc3ccccc3C#N)nn2c1 [Example 3.9, 2-{[6-(4-hydroxy-2-methylphenyl)[1,2,4]triazolo[1,5-a]pyridin-2-yl]amino}benzonitrile]
3 | 24 | CNC(=O)c1ccc(-c2ccc3nc(Nc4ccccc4C#N)nn3c2)cc1 [Example 3.10, 4-{2-[(2-cyanophenyl)amino] [1,2,4]triazolo[1,5-a]pyridin-6-yl}-N-methylbenzamide]
4 | 890 | N#Cc1ccccc1Nc1nc2ccc(-c3cccc(F)c3)cn2n1 [Example 3.12, 2-{[6-(3-fluorophenyl)[1,2,4]triazolo[1,5-a]pyridin-2-yl]amino}benzonitrile]
5 | 1200 | COc1ccccc1-c1ccc2nc(Nc3ccccc3C#N)nn2c1 [Example 3.13, 2-{[6-(2 methoxyphenyl)[1,2,4]triazolo[1,5-a]pyridin-2-yl]amino}benzonitrile]
6 | 770 | N#Cc1ccccc1Nc1nc2ccc(-c3ccc(CO)cc3)cn2n1 [Example 3.14, 2-({6-[4-(hydroxymethyl)phen-yl][1,2,4]triazolo[1,5-a]pyridin-2-yl}amino)benzonitrile]
7 | 28 | N#Cc1ccccc1Nc1nc2ccc(-c3cccc(O)c3)cn2n1 [Example 3.17, 2-{[6-(3-hydroxyphenyl)[1,2,4]triazolo[1,5-a]pyridin-2-yl]amino}benzonitrile]
8 | 96 | COc1c(C)cc(-c2ccc3nc(Nc4ccccc4C#N)nn3c2)cc1C [Example 3.19, 2-{[6-(4-methoxy-3,5-dimethylphenyl)[1,2,4]triazolo[1,5-a]pyridin-2-yl]amino}benzonitrile]
9 | 1500 | N#Cc1ccc(-c2ccc3nc(Nc4ccccc4C#N)nn3c2)cc1 [Example 3.20, 2-{[6-(4-cyanophenyl)[1,2,4]triazolo[1,5-a]pyridin-2-yl]amino}benzonitrile]
10 | 210 | N#Cc1ccccc1Nc1nc2ccc(-c3ccc4[nH]ccc4c3)cn2n1 [Example 3.21, 2-{[6-(1H-indol-5-yl)[1,2,4]triazolo[1,5-a]pyridin-2-yl]amino}benzonitrile]
11 | 46 | N#Cc1ccccc1Nc1nc2ccc(-c3ccc(N)cc3)cn2n1 [Example 4.2, 2-{[6-(4-aminophenyl)[1,2,4]triazolo[1,5-a]pyridin-2-yl]amino}benzonitrile]
12 | 28 | CC(=O)Nc1ccc(-c2ccc3nc(Nc4ccccc4C#N)nn3c2)cc1 [Example 4.3, N-(4-{2-[(2-cyanophenyl)amino][1,2,4]triazolo[1,5-a]pyridin-6-yl}phenyl)acetamide]
13 | 72 | COc1ccccc1Nc1nc2ccc(-c3ccc(N)cc3)cn2n1 [Example 5.2, 6-(4-aminophenyl)-N-(2-methoxyphenyl)[1,2,4]triazolo[1,5-a]pyridin-2-amine]
14 | 76 | COc1ccccc1Nc1nc2ccc(-c3ccc(NC(C)=O)cc3)cn2n1 [Example 5.3, N-(4-{2-[(2-methoxyphenyl)amino][1,2,4]triazolo[1,5-a]pyridin-6-yl}phenyl)acetamide]
15 | 220 | O=C(CCl)Nc1ccc(-c2ccc3nc(Nc4ccccc4C(F)(F)F)nn3c2)cc1 [Example 6.3, 2-chloro-N-[4-(2-{[2-(trifluoromethyl)phenyl]amino}[1,2,4]triazolo[1,5-a]pyridin-6-yl)phenyl]acetamide]
16 | 190 | COc1ccccc1Nc1nc2ccc(-c3cccc(NS(C)(=O)=O)c3)cn2n1 [Example 8.3, N-(3-{2-[(2-methoxyphenyl)amino][1,2,4]triazolo[1,5-a]pyridin-6-yl}phenyl)methanesulfonamide]

Row | IC50 [nM] | SMILES
17 | 92 | COc1ccccc1Nc1nc2ccc(-c3cccc(NC(=O)NC(C)C)c3)cn2n1 [Example 8.4, 1-(3-{2-[(2-methoxyphenyl)amino][1,2,4]triazolo[1,5-a]pyridin-6-yl}phenyl)-3-propan-2-ylurea]
18 | 500 | CCOC(=O)c1cccc(-c2ccc3nc(Nc4ccccc4C#N)nn3c2)c1 [Example 9.1, ethyl 3-{2-[(2-cyanophenyl)amino][1,2,4]triazolo[1,5-a]pyridin-6-yl}benzoate]
19 | 72 | N#Cc1ccccc1Nc1nc2ccc(-c3cccc(C(=O)O)c3)cn2n1 [Example 9.2, 3-{2-[(2-cyanophenyl)amino][1,2,4]triazolo[1,5-a]pyridin-6-yl}benzoic acid]
20 | 8.8 | CC(C)NC(=O)c1cccc(-c2ccc3nc(Nc4ccccc4C#N)nn3c2)c1 [Example 9.4, 3-{2-[(2-cyanophenyl)amino][1,2,4]triazolo[1,5-a]pyridin-6-yl}-N-(propan-2-yl)benzamide]
21 | ≤ 1 | O=C(NCC(F)(F)F)c1ccc(-c2ccc3nc(Nc4cccnc4OCC(F)(F)F)nn3c2)cc1 [Example 11.001, 4-(2-{[2-(2,2,2-trifluoroethoxy)pyridin-3-yl]amino}[1,2,4]triazolo[1,5-a]-pyridin-6-yl)-N-(2,2,2-trifluoroethyl)benzamide]
22 | ≤ 1 | CC(C)(C)NC(=O)c1ccc(Nc2nc3ccc(-c4ccc(C(=O)NCC(F)(F)F)cc4)cn3n2)c(OCC(F)(F)F)c1 [Example 11.002, N-tert-butyl-3-(2,2,2-trifluoroethoxy)-4-[(6-{4-[(2,2,2-trifluoroethyl)-carbamoyl]phenyl}[1,2,4]triazolo[1,5-a]pyridin-2-yl)amino]benzamide]
23 | 3.74 | CCOc1ncccc1Nc1nc2ccc(-c3ccc(C(=O)NCC(F)(F)F)cc3)cn2n1 [Example 11.003, 4-{2-[(2-ethoxypyridin-3-yl)amino][1,2,4]triazolo[1,5-a]pyridin-6-yl}-N-(2,2,2-trifluoroethyl)benzamide]
24 | 1.01 | COc1cc(C(=O)NC(C)(C)C)ccc1Nc1nc2ccc(-c3ccc(C(=O)NCC(F)(F)F)cc3)cn2n1 [Example 11.005, N-tert-butyl-3-methoxy-4-[(6-{4-[(2,2,2-trifluoroethyl)carbamoyl]phenyl}[1,2,4]triazolo[1,5-a]pyridin-2-yl)amino]benzamide]
25 | ≤ 1 | CCNC(=O)c1ccc(Nc2nc3ccc(-c4ccc(C(=O)NCC(F)(F)F)cc4)cn3n2)c(OC)c1 [Example 11.006, N-ethyl-3-methoxy-4-[(6-{4-[(2,2,2-trifluoroethyl)carbamoyl]phenyl}[1,2,4]triazolo[1,5-a]pyridin-2-yl)amino]benzamide]
26 | ≤ 1 | CNCCN(C)C(=O)c1ccc(Nc2nc3ccc(-c4ccc(C(=O)NCC(F)(F)F)cc4)cn3n2)c(OC)c1 [Example 11.007, 3-methoxy-N-methyl-N-[2-(methylamino)ethyl]-4-[(6-{4-[(2,2,2-trifluoroethyl)carbamoyl]phenyl}[1,2,4]triazolo[1,5-a]pyridin-2-yl)amino]benzamide]
27 | 1550 | N#Cc1ccccc1Nc1nc2ccc(-c3ccc(C(=O)O)cc3)cn2n1 [Example 11.009, 4-{2-[(2-cyanophenyl)amino][1,2,4]triazolo[1,5-a]pyridin-6-yl}benzoic acid]
28 | 1.61 | N#Cc1ccccc1Nc1nc2ccc(-c3ccc(C(=O)NCC(F)(F)F)cc3)cn2n1 [Example 11.010, 4-{2-[(2-cyanophenyl)amino][1,2,4]triazolo[1,5-a]pyridin-6-yl}-N-(2,2,2-trifluoroethyl)benzamide]
29 | 8.28 | CC(C)(C)CNC(=O)c1ccc(-c2ccc3nc(Nc4ccccc4C#N)nn3c2)cc1 [Example 11.012, 4-{2-[(2-cyanophenyl)amino][1,2,4]triazolo[1,5-a]pyridin-6-yl}-N-(2,2-dimethylpropyl)benzamide]
30 | 1060 | CC(C)(C)OC(=O)c1ccc(-c2ccc3nc(Nc4ccccc4C#N)nn3c2)cc1 [Example 11.013, tert-butyl 4-{2-[(2-cyanophenyl)amino][1,2,4]triazolo[1,5-a]pyridin-6-yl}benzoate]
31 | 42.5 | CC(C)(C)NC(=O)c1ccc(-c2ccc3nc(Nc4ccccc4C#N)nn3c2)cc1 [Example 11.014, N-tert-butyl-4-{2-[(2-cyanophenyl)amino][1,2,4]triazolo[1,5-a]pyridin-6-yl}benzamide]
